Test results from ChEMBL document CHEMBL4334477, “Bioactive Sesquiterpene Lactones Isolated from the Whole Plants of Vernonia cinerea” (J Nat Prod, 2019).

Columns and labels:
HeLa = assay: Cytotoxicity against human HeLa cells assessed as inhibition of cell proliferation measured after 48 hrs by MTS assay; type: functional, cell-based
RAW264.7 [1] = assay: Cytotoxicity against mouse RAW264.7 cells assessed as cell proliferation at 10 ug/ml pretreated with LPS for 24 hrs followed by overnight incubation with compound by MTS assay; type: cell-based
RAW264.7 [2] = assay: Antiinflammatory activity against mouse RAW264.7 cells assessed as inhibition of LPS-induced nitric oxide overproduction pretreated with LPS for 24 hrs followed by overnight incubation with compound by Griess assay; type: functional, cell-based

Row | Compound | IC50 (HeLa) [µM] | Activity (RAW264.7 [1]) | IC50 (RAW264.7 [2]) [µM]
1 | C=C(C)C(=O)O[C@H]1C[C@@]23CO[C@@H](C[C@](C)(C[C@@]4(OC)OC(=O)C(COC(C)=O)=C14)O2)[C@@H]3O | > 10 |  | 
2 | C/C=C(\C)C(=O)O[C@H]1C[C@@]23CO[C@@H](C[C@](C)(C[C@@]4(OC)OC(=O)C(COC(C)=O)=C14)O2)[C@@H]3O | > 10 |  | 
3 | C=C(C)C(=O)O[C@H]1C[C@@H](C)[C@@]2(O)CC[C@@](C)(/C=C3/OC(=O)C(COC(C)=O)=C31)O2 | 35 | Non-Toxic | 23
4 | C=C(C)C(=O)O[C@H]1C[C@@]23CO[C@@H](C[C@](C)(/C=C4/OC(=O)C(COC(C)=O)=C41)O2)[C@@H]3O | > 10 |  | 
5 | Cc1c2ccncc2c(C)c2c1[nH]c1ccccc12 [ELLIPTECINE] | 2 |  | 
6 | C/C=C(\C)C(=O)O[C@H]1C[C@@H](C)[C@@]2(O)CC[C@@](C)(/C=C3/OC(=O)C(COC(C)=O)=C31)O2 | 32 | Non-Toxic | 21
7 | C=C(C)C(=O)O[C@H]1C[C@@]23CO[C@@H](C[C@](C)(/C=C4/OC(=O)C(COC)=C41)O2)[C@@H]3O | > 10 |  | 
8 | C/C=C(\C)C(=O)O[C@H]1C[C@@]23CO[C@@H](C[C@](C)(/C=C4/OC(=O)C(COC(C)=O)=C41)O2)[C@@H]3O | > 10 |  | 
9 | C/C=C(\C)C(=O)O[C@H]1C[C@@]23CO[C@@H](C[C@](C)(/C=C4/OC(=O)C(COC)=C41)O2)[C@@H]3O | > 10 |  | 
